# Reference: patent US8003602B2 (priority 2006, dated 2011)
# Assays:
# S. aureus E-710 [1] = experiment: Neutropenic thigh model; assay type: in vivo, Balb/C mice; settings: 5 mg/kg intravenously two hours post infection, 6 hour time point
# Description: (§1) The in-vivo potency was established by protection dose (PD) determinations of the compound PM181104 for its antibiotic activity in three animal models using either male or female Balb/C mice.
# (§2) The models used were the general purpose efficacy testing models and organ/tissue specific efficacy testing models. The general purpose efficacy testing models used were systemic infection model (septicemia), and localized infection model (neutropenic thigh model). The Organ/Tissue specific infection models used for efficacy testing were kidney, lung infection, and skin abscess model.
# Each experimental group consisted of six animals. PM181104 was prepared in cremophor-ethanol formulation as described in example 14.
# S. aureus KEM-MRSA22 = experiment: MIC, Macro-broth dilution method; assay type: cell-based, Staphylococcus aureus
# Description: (§3) The in-vitro potency was established by minimum inhibitory concentration (MIC) determinations of the compound PM181104 against bacterial strains, by using the Macro-broth dilution method as per National Committee for Clinical Laboratory Standards (2000) guidelines [Journal of Anti-microbial Chemotherapy, 2002, 50, 125-128 (Cross Reference 8: Methods for Dilution Antimicrobial Susceptibility Tests for Bacteria that Grow Aerobically-Fifth Edition: Approved Standard M7-A5. NCCLS, Wayne, Pa., USA)]. Unless stated otherwise, Mueller-Hinton broth was used as nutrient medium for the assay. Linezolid (manufactured by Glenmark Pharma Ltd; Batch no: K2005028) was used as known standard in all in-vitro experiments. For preparation of the stock solution the compound PM181104 was dissolved in chloroform (5% of the total required volume) and diluted using methanol (95% of the total required volume).
# S. aureus Rehaja-MRSA1 = experiment: MIC, Macro-broth dilution method; assay type: cell-based, Staphylococcus aureus
# Description: as §3
# S. aureus Bom-MRSA2 = experiment: MIC, Macro-broth dilution method; assay type: cell-based, Staphylococcus aureus
# Description: as §3
# S. aureus (20666) = experiment: MIC, Macro-broth dilution method; assay type: cell-based, Staphylococcus aureus
# Description: as §3
# S. aureus ATCC29213 = experiment: MIC, Macro-broth dilution method; assay type: cell-based, Staphylococcus aureus
# Description: as §3
# S. aureus wien13 = experiment: MIC, Macro-broth dilution method; assay type: cell-based, Staphylococcus aureus
# Description: as §3
# S. aureus wien8 = experiment: MIC, Macro-broth dilution method; assay type: cell-based, Staphylococcus aureus
# Description: as §3
# S. aureus KEM-MRSA8 = experiment: MIC, Macro-broth dilution method; assay type: cell-based, Staphylococcus aureus
# Description: as §3
# S. aureus KEM-MRSA11 = experiment: MIC, Macro-broth dilution method; assay type: cell-based, Staphylococcus aureus
# Description: as §3
# S. aureus KEM-MRSA20 = experiment: MIC, Macro-broth dilution method; assay type: cell-based, Staphylococcus aureus
# Description: as §3
# S. aureus KEM-MRSA1 = experiment: MIC, Macro-broth dilution method; assay type: cell-based, Staphylococcus aureus
# Description: as §3
# S. aureus (E710) = experiment: MIC, Macro-broth dilution method; assay type: cell-based, Staphylococcus aureus; settings: S. aureus MRSA E710
# Description: as §3
# S. aureus SG511 = experiment: MIC, Macro-broth dilution method; assay type: cell-based, Staphylococcus aureus
# Description: as §3
# S. aureus KEM-MRSA12 = experiment: MIC, Macro-broth dilution method; assay type: cell-based, Staphylococcus aureus
# Description: as §3
# S. aureus KEM-MRSA21 = experiment: MIC, Macro-broth dilution method; assay type: cell-based, Staphylococcus aureus
# Description: as §3
# S. aureus KEM-MRSA19 = experiment: MIC, Macro-broth dilution method; assay type: cell-based, Staphylococcus aureus
# Description: as §3
# S. aureus KEM-MRSA25 = experiment: MIC, Macro-broth dilution method; assay type: cell-based, Staphylococcus aureus
# Description: as §3
# S. aureus C1 3184 = experiment: MIC, Macro-broth dilution method; assay type: cell-based, Staphylococcus aureus
# Description: as §3
# S. aureus KEM-MRSA24 = experiment: MIC, Macro-broth dilution method; assay type: cell-based, Staphylococcus aureus
# Description: as §3
# S. aureus (789) = experiment: MIC, Macro-broth dilution method; assay type: cell-based, Staphylococcus aureus
# Description: as §3
# S. aureus (3066) = experiment: MIC, Macro-broth dilution method; assay type: cell-based, Staphylococcus aureus
# Description: as §3
# S. aureus KEM-MRSA2 = experiment: MIC, Macro-broth dilution method; assay type: cell-based, Staphylococcus aureus
# Description: as §3
# S. aureus KEM-MRSA7 = experiment: MIC, Macro-broth dilution method; assay type: cell-based, Staphylococcus aureus
# Description: as §3
# S. aureus KEM-MRSA23 = experiment: MIC, Macro-broth dilution method; assay type: cell-based, Staphylococcus aureus
# Description: as §3
# S. aureus KEM-MRSA18 = experiment: MIC, Macro-broth dilution method; assay type: cell-based, Staphylococcus aureus
# Description: as §3
# S. aureus Lilavati-MRSA3 = experiment: MIC, Macro-broth dilution method; assay type: cell-based, Staphylococcus aureus
# Description: as §3
# S. aureus E-710 [2] = experiment: Lung infection model; assay type: in vivo, Balb/C mice; settings: 5 mg/kg intravenously at 24 and 36 hours post infection, lungs collected at 48 hours
# Description: as §1, §2
# Balb/C mice were rendered neutropenic by intraperitoneally administering 200 mg/kg cyclophosphamide four days and two days prior to infection. On the day of infection, the mice were anesthetized and infected with S. aureus E-710 log-phase culture suspension having bacterial density of approximately 10^6 to 10^7 cfu/ml. 24 and 36 hours post infection the first and second respective dose of drug was administered intravenously. 48 hours post infection, the animals were humanely euthanized and their lungs were aseptically collected to determine the viable count of bacteria. In this model, PM181104 was tested at 5 mg/kg dose prepared in cremophor-ethanol formulation as described in example 14. Two standard antibiotics viz. Linezolid (80 mg/kg single dose at 24 hours post infection) and Vancomycin (110 mg/kg, two doses at 24 and 48 hours post infection) were used as positive controls.
# Enterococci KEM-VRE27 = experiment: MIC, Macro-broth dilution method; assay type: cell-based
# Description: as §3
# E. faecalis (FH-1) = experiment: MIC, Macro-broth dilution method; assay type: cell-based
# Description: as §3
# Streptococcus hirae 55 = experiment: MIC, Macro-broth dilution method; assay type: cell-based
# Description: as §3
# E. faecalis (uD.8b) = experiment: MIC, Macro-broth dilution method; assay type: cell-based
# Description: as §3
smiles,measurement,setting,value
C=C(NC(=O)C(=C)NC(=O)C1CCCN1C(=O)c1nc(-c2ccc(-c3nc(C(=O)NC(=C)C(=O)NC(C)C(N)=O)cs3)c(-c3csc(C4Cc5nc(cs5)C(=O)NC(Cc5ccccc5)C5=NC(CS5)C(=O)NC(Cc5ccc(O)cc5)C(=O)N5CCCC5c5nc(cs5)C(=O)N4)n3)n2)oc1C)C(N)=O (stereo not drawn) [PM181104],decrease in viable counts in thigh tissue,S. aureus E-710 [1],approximately 1 log
same,MIC,S. aureus KEM-MRSA22,0.00781 µg/mL
same,MIC,S. aureus Rehaja-MRSA1,0.03125 µg/mL
same,MIC,S. aureus Bom-MRSA2,0.0625 µg/mL
same,MIC,S. aureus (20666),0.01563 µg/mL
same,MIC,S. aureus ATCC29213,0.03125 µg/mL
same,MIC,S. aureus wien13,0.0625 µg/mL
same,MIC,S. aureus wien8,0.01563 µg/mL
same,MIC,S. aureus KEM-MRSA8,0.01563 µg/mL
same,MIC,S. aureus KEM-MRSA11,0.0625 µg/mL
same,MIC,S. aureus KEM-MRSA20,0.01563 µg/mL
same,MIC,S. aureus KEM-MRSA1,0.03125 µg/mL
same,MIC,S. aureus (E710),0.03125 µg/mL
same,MIC,S. aureus SG511,0.0625 µg/mL
same,MIC,S. aureus KEM-MRSA12,0.01563 µg/mL
same,MIC,S. aureus KEM-MRSA21,0.01563 µg/mL
same,MIC,S. aureus KEM-MRSA19,0.00781 µg/mL
same,MIC,S. aureus KEM-MRSA25,0.01563 µg/mL
same,MIC,S. aureus C1 3184,0.0625 µg/mL
same,MIC,S. aureus KEM-MRSA24,0.00781 µg/mL
same,MIC,S. aureus (789),0.00781 µg/mL
same,MIC,S. aureus (3066),0.03125 µg/mL
same,MIC,S. aureus KEM-MRSA2,0.03125 µg/mL
same,MIC,S. aureus KEM-MRSA7,0.01563 µg/mL
same,MIC,S. aureus KEM-MRSA23,0.01563 µg/mL
same,MIC,S. aureus KEM-MRSA18,0.01563 µg/mL
same,MIC,S. aureus Lilavati-MRSA3,0.01563 µg/mL
same,activity profile in lung infection,S. aureus E-710 [2],bacteriostatic activity
same,difference in the bacterial count in the lungs as compared to untreated control animals,S. aureus E-710 [2],approximately 2 log
same,MIC,Enterococci KEM-VRE27,0.00391 µg/mL
same,MIC,E. faecalis (FH-1),0.00391 µg/mL
same,MIC,Streptococcus hirae 55,0.00391 µg/mL
same,MIC,E. faecalis (uD.8b),0.00391 µg/mL
